# From PubChem BioAssay AID212 (DTP/NCI, 2004)
# Where “and” joins values, the source holds several entries; their conditions need not be identical. Equal values may be shown once. Records with an inconclusive call do not appear.
# Tested on: BDF1 mice, colon carcinoma 38 sc, T/C %
# Test: NCI In Vivo Anticancer Drug Screen. Data for tumor model Colon Carcinoma 38 (subcutaneous) in B6D2F1 (BDF1) mice
# Settings: endpoint: median tumor weight (est.), higher = larger tumour
# How it was run: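 Mice with transplanted tumors are treated with compound or vehicle. Survival or tumor size is then measured in both groups. The ratio of treated to control gives the reported figure.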
# [1] = dose: 12.5 mg/kg/injection, schedule: Q07DX002 (ip), vehicle: saline with Tween-80
# [2] = dose: 25.0 mg/kg/injection, schedule: Q07DX002 (ip), vehicle: saline with Tween-80
# [3] = dose: 100.0 mg/kg/injection, schedule: Q07DX002 (ip), vehicle: saline with Tween-80
# [4] = dose: 200.0 mg/kg/injection, schedule: Q07DX002 (ip), vehicle: saline with Tween-80
# [5] = dose: 12.5 mg/kg/injection, schedule: Q07DX002 (ip), vehicle: saline
# [6] = dose: 25.0 mg/kg/injection, schedule: Q07DX002 (ip), vehicle: saline
# [7] = dose: 50.0 mg/kg/injection, schedule: Q07DX002 (ip), vehicle: saline
# [8] = dose: 100.0 mg/kg/injection, schedule: Q07DX002 (ip), vehicle: saline
# [9] = dose: 50.0 mg/kg/injection, schedule: Q07DX002 (ip), vehicle: saline with Tween-80
# [10] = dose: 400.0 mg/kg/injection, schedule: Q07DX002 (ip), vehicle: saline with Tween-80
# [11] = dose: 100.0 mg/kg/injection, schedule: Q07DX003 (ip), vehicle: saline
# [12] = dose: 200.0 mg/kg/injection, schedule: Q07DX002 (ip), vehicle: saline
# [13] = dose: 200.0 mg/kg/injection, schedule: Q07DX003 (ip), vehicle: saline
# [14] = dose: 400.0 mg/kg/injection, schedule: Q07DX002 (ip), vehicle: saline
# [15] = dose: 400.0 mg/kg/injection, schedule: Q07DX003 (ip), vehicle: saline
# [16] = dose: 6.25 mg/kg/injection, schedule: Q07DX002 (ip), vehicle: saline
# [17] = dose: 25.0 mg/kg/injection, schedule: Q07DX002 (ip), vehicle: suspension in saline
# [18] = dose: 50.0 mg/kg/injection, schedule: Q07DX002 (ip), vehicle: suspension in saline
# [19] = dose: 12.5 mg/kg/injection, schedule: Q07DX002 (ip), vehicle: Klucel (hydroxypropylcellulose) (HPC)
# [20] = dose: 50.0 mg/kg/injection, schedule: Q07DX002 (ip), vehicle: Klucel (hydroxypropylcellulose) (HPC)
compound,measurement,setting,value
C1=CCOCOC1,T/C,[1],77 % of control
same,T/C,[2],94 % of control and 104 % of control
same,T/C,[3],72 % of control
same,T/C,[4],58 % of control
Cc1cc2c(cc1C)C(=O)c1c(O)c3c(c(O)c1C2=O)C[C@@](O)(C(=O)CO)C[C@@H]3OC1CC(N)C(O)C(C)O1 (stereo not given in full),T/C,"dose: 4.75 mg/kg/injection, schedule: Q07DX002 (ip), vehicle: distilled water + Tween-80",51 % of control
same,T/C,"dose: 6.33 mg/kg/injection, schedule: Q07DX002 (ip), vehicle: distilled water + Tween-80",65 % of control
same,T/C,"dose: 8.44 mg/kg/injection, schedule: Q07DX002 (ip), vehicle: distilled water + Tween-80",28 % of control
same,T/C,"dose: 11.25 mg/kg/injection, schedule: Q07DX002 (ip), vehicle: distilled water + Tween-80",23 % of control
same,T/C,"dose: 15.0 mg/kg/injection, schedule: Q07DX002 (ip), vehicle: distilled water + Tween-80",17 % of control
CC1(C)COCN1COCCOCN1COCC1(C)C,T/C,[5],87 % of control
same,T/C,[6],109 % of control and 112 % of control
same,T/C,[7],80 % of control and 95 % of control
same,T/C,[8],81 % of control and 88 % of control
CC[C@@]1(O)C[C@H](OC2CC(N(C)C)C(OC3CC(O)C(OC4CCC(=O)C(C)O4)C(C)O3)C(C)O2)c2c(cc3c(c2O)C(=O)c2c(O)ccc(O)c2C3=O)[C@H]1C(=O)OC (stereo not given in full),T/C,"dose: 0.5 mg/kg/injection, schedule: Q07DX002 (ip), vehicle: water",78 % of control
same,T/C,"dose: 0.5 mg/kg/injection, schedule: Q07DX003 (ip), vehicle: water",100 % of control
same,T/C,"dose: 1.0 mg/kg/injection, schedule: Q07DX002 (ip), vehicle: water",47 % of control
same,T/C,"dose: 1.0 mg/kg/injection, schedule: Q07DX003 (ip), vehicle: water",111 % of control
same,T/C,"dose: 2.0 mg/kg/injection, schedule: Q07DX002 (ip), vehicle: water",84 % of control
same,T/C,"dose: 2.0 mg/kg/injection, schedule: Q07DX003 (ip), vehicle: water",79 % of control
same,T/C,"dose: 4.0 mg/kg/injection, schedule: Q07DX002 (ip), vehicle: water",44 % of control
same,T/C,"dose: 4.0 mg/kg/injection, schedule: Q07DX003 (ip), vehicle: water",46 % of control
same,T/C,"dose: 8.0 mg/kg/injection, schedule: Q07DX002 (ip), vehicle: water",47 % of control
O=C(NC1CCCCC1)OCc1c(COC(=O)NC2CCCCC2)c(-c2ccc(Cl)c(Cl)c2)n2c1CCC2,T/C,[1],111 % of control
same,T/C,[2],85 % of control
same,T/C,[9],76 % of control
same,T/C,[3],95 % of control
same,T/C,[4],86 % of control
same,T/C,[10],80 % of control
COC(OC(CO)C(O)S(=O)(=O)O)C(O)S(=O)(=O)O (stereo not given),T/C,[5],113 % of control
same,T/C,"dose: 12.5 mg/kg/injection, schedule: Q07DX003 (ip), vehicle: saline",123 % of control
same,T/C,[6],108 % of control
same,T/C,"dose: 25.0 mg/kg/injection, schedule: Q07DX003 (ip), vehicle: saline",100 % of control
same,T/C,[7],123 % of control and 105 % of control
same,T/C,"dose: 50.0 mg/kg/injection, schedule: Q07DX003 (ip), vehicle: saline",97 % of control
same,T/C,[8],95 % of control and 105 % of control
same,T/C,[11],110 % of control
same,T/C,[12],80 % of control and 105 % of control
same,T/C,[13],98 % of control
same,T/C,[14],85 % of control and 86 % of control
same,T/C,[15],50 % of control
CCCCn1cnc2c(=S)nc[nH]c21,T/C,[9],87 % of control and 96 % of control
same,T/C,[10],17 % of control and 21 % of control
CCN(CC)CCC(=O)c1ccccc1,T/C,[16],85 % of control
same,T/C,[5],118 % of control and 108 % of control
same,T/C,"dose: 12.5 mg/kg/injection, schedule: Q07DX002 (ip), vehicle: suspension in saline",122 % of control
same,T/C,[17],80 % of control
same,T/C,[18],85 % of control
same,T/C,[8],108 % of control
CCC1CCCCN1C(=S)N/N=C(\C)c1ccccn1 (stereo not given),T/C,[2],121 % of control
CCc1ccccc1N1CCN(C(=O)c2cc(OC)c(OC)c(OC)c2)CC1,T/C,"dose: 12.5 mg/kg/injection, schedule: Q07DX003 (ip), vehicle: Klucel (hydroxypropylcellulose) (HPC)",92 % of control
same,T/C,"dose: 25.0 mg/kg/injection, schedule: Q07DX003 (ip), vehicle: Klucel (hydroxypropylcellulose) (HPC)",96 % of control
same,T/C,"dose: 50.0 mg/kg/injection, schedule: Q07DX003 (ip), vehicle: Klucel (hydroxypropylcellulose) (HPC)",47 % of control
same,T/C,"dose: 100.0 mg/kg/injection, schedule: Q07DX003 (ip), vehicle: Klucel (hydroxypropylcellulose) (HPC)",64 % of control
same,T/C,"dose: 200.0 mg/kg/injection, schedule: Q07DX003 (ip), vehicle: Klucel (hydroxypropylcellulose) (HPC)",54 % of control
same,T/C,"dose: 400.0 mg/kg/injection, schedule: Q07DX003 (ip), vehicle: Klucel (hydroxypropylcellulose) (HPC)",13 % of control
Cc1ccc(Cl)c2ccccc12,T/C,[1],96 % of control and 102 % of control
same,T/C,[2],92 % of control
same,T/C,[3],89 % of control and 96 % of control
same,T/C,[4],88 % of control and 96 % of control
same,T/C,[10],87 % of control
C[N+](C)(C)c1ncnc2nc[nH]c12,T/C,[6],83 % of control
same,T/C,[7],77 % of control and 98 % of control
same,T/C,[8],96 % of control and 100 % of control
same,T/C,[12],75 % of control and 85 % of control
BrC1c2cccc3cccc(c23)C1Br (stereo not given),T/C,[1],103 % of control
same,T/C,[2],117 % of control and 120 % of control
same,T/C,[3],97 % of control and 107 % of control
same,T/C,[4],108 % of control and 111 % of control
same,T/C,[10],85 % of control
O=C1NC(O)CCN1C1OC(CO)C(O)C1O (stereo not given),T/C,[8],153 % of control
same,T/C,[11],94 % of control
same,T/C,[12],192 % of control
same,T/C,[13],91 % of control
same,T/C,[14],89 % of control
same,T/C,[15],157 % of control
same,T/C,"dose: 800.0 mg/kg/injection, schedule: Q07DX002 (ip), vehicle: saline",113 % of control
O=C(O)C(CSC(c1ccccc1)(c1ccccc1)c1ccccc1)N=Cc1cccs1 (stereo not given),T/C,[6],62 % of control
same,T/C,[17],103 % of control
same,T/C,[7],101 % of control
same,T/C,[18],84 % of control
same,T/C,[8],87 % of control
same,T/C,"dose: 100.0 mg/kg/injection, schedule: Q07DX002 (ip), vehicle: suspension in saline",107 % of control
same,T/C,[12],51 % of control
same,T/C,"dose: 200.0 mg/kg/injection, schedule: Q07DX002 (ip), vehicle: suspension in saline",62 % of control
COc1cc2cc(c1Cl)N(C)C(=O)CC(OC(=O)CC(C)C)C1(C)OC1C(C)C1CC(O)(NC(=O)O1)C(OC)/C=C/C=C(C)C2 (stereo not given),T/C,"dose: 6.2 micrograms/kg/injection, schedule: Q07DX003 (ip), vehicle: saline + alcohol",121 % of control
same,T/C,"dose: 25.0 micrograms/kg/injection, schedule: Q07DX003 (ip), vehicle: saline + alcohol",75 % of control
CC(=O)Nc1ccc(O)c(O)c1,T/C,[1],112 % of control
same,T/C,[2],86 % of control
same,T/C,[9],100 % of control and 102 % of control
same,T/C,[3],66 % of control and 83 % of control
same,T/C,[4],90 % of control and 95 % of control
same,T/C,[10],74 % of control and 75 % of control and 86 % of control
same,T/C,"dose: 800.0 mg/kg/injection, schedule: Q07DX002 (ip), vehicle: saline with Tween-80",72 % of control
O=NN(CCF)C(=O)NC1CCCCC1,T/C,[19],77 % of control
same,T/C,[20],15 % of control
Cc1cc2nc3[nH]c4ccccc4c3nc2cc1C,T/C,[19],164 % of control
same,T/C,[20],199 % of control
same,T/C,"dose: 100.0 mg/kg/injection, schedule: Q07DX002 (ip), vehicle: Klucel (hydroxypropylcellulose) (HPC)",172 % of control
same,T/C,"dose: 200.0 mg/kg/injection, schedule: Q07DX002 (ip), vehicle: Klucel (hydroxypropylcellulose) (HPC)",220 % of control
same,T/C,"dose: 400.0 mg/kg/injection, schedule: Q07DX002 (ip), vehicle: Klucel (hydroxypropylcellulose) (HPC)",223 % of control
CC1CN1P1(N2CC2C)=NP(N2CC2C)(N2CC2C)=NP(N2CC2C)(N2CC2C)=N1 (stereo not given),T/C,[16],103 % of control
same,T/C,[5],104 % of control
same,T/C,[6],111 % of control
same,T/C,[7],155 % of control
same,T/C,[8],70 % of control and 94 % of control
